Experimental data reported in BigSolDB 2.1.

Details: in water

CC(C)(C)[C@H](O)[C@H](Cc1ccc(Cl)cc1)n1cncn1 (racemic)
Details	solubility (mole fraction)
278.15 K	3.96e-05
280.65 K	5.22e-05
283.15 K	6.56e-05
285.65 K	7.76e-05
288.15 K	8.75e-05
290.65 K	0.000111
293.15 K	0.000146
295.65 K	0.000181
298.15 K	0.000231
300.65 K	0.000295
303.15 K	0.000346
305.65 K	0.000408
308.15 K	0.000458
310.65 K	0.00054
313.15 K	0.000626
